Assay [1] has as its system deoxyribonucleoside kinases from Aedes aegypti (PZG318). Briefly: Nucleoside kinase activity (DE-81 filter paper assay, tritium labelled substrates) in extracts of KY895 cells transformed with PZG318. In kind it is biochemical. The note with it: for Phosphorylation / activation by the mosquito deoxyribonucleoside kinase (in words): extract of KY895 transformed with PZG318; for Deoxyribonucleoside kinase specific activity in extract: substrate at fixed concentration of 100 μM. The procedure:
(§1) This example describes how E. coli KY895 were transformed with the plasmid obtained according to Example 1, in order to express mosquito dNK.
(§2) KY895 cells were transformed by the expression plasmid of Example 1 using standard techniques, e.g. as described by e.g. Sambrook et al. [Sambrook et al.; Molecular Cloning: A Laboratory Manual, Cold Spring Harbor Lab., Cold Spring Harbor, N.Y. 1989].
(§3) Transformed cells were grown to an OD600 nm of 0.5-0.6 in LB/Ampicillin (100 μg/ml) medium at 37° C. and protein expression was induced by addition of 100 μM IPTG. The cells were further grown for 4 h at 25° C. and subsequently harvested by centrifugation. The cell pellet was subjected to sonification in the binding buffer A (20 mM NaPO4 pH 7,3; 150 mM NaCl; 10% Glycerol; and 0.1% Triton X-100) and subjected to centrifugation at 10,000×g for 30 minutes. Cell free extract was used for enzymatic activity assays.
Nucleoside kinase activities were determined by initial velocity measurments based on four time sample by the DE-81 filter paper assay using tritium labelled substrates. The assays were performed as described by Munch-Petersen et al. [Munch-Petersen B, Knecht W, Lenz C, Søndergaard L, Piskur J: Functional expression of a multisubstrate deoxyribonucleoside kinase from Drosophila melanogaster and its C-terminal deletion mutants; J. Biol. Chem. 2000 275 6673-6679].
The protein concentration was determined according to Bradford with BSA as standard protein [Bradford M M: A rapid and sensitive method for the quantitation of microgram quantities of protein utilizing the principle of protein-dye binding; Anal. Biochem. 1976 72 248-254]. SDS-PAGE was done according to the procedure of Laemmli[Laemmil U K: Cleavage of structural proteins during the assembly of the head of bacteriophage T4; Nature 1970 227 680-685], and proteins were visualized by Coomassie staining to verify recombinant protein expression.
The natural deoxyribonucleoside and deoxyribonucleoside analogs were tested at a fixed concentration of 100 μM. The specific activity in each extract is given in mU/ml.

Assay [2] has as its system Extracts of KY895 Cells. Briefly: Nucleoside kinase activity (DE-81 filter paper assay) in control extracts of KY895 cells (cells only, empty vector pGEX-2T). It is filed as biochemical, E. coli. The following applies: extract of KY895 transformed with pGEX-2T (empty vector); substrate 100 μM; n.d. = not detectable. The procedure: as §1, §2, §3
Nucleoside kinase activities were determined by initial velocity measurments based on four time sample by the DE-81 filter paper assay using tritium labelled substrates. […]
The protein concentration was determined according to Bradford with BSA as standard protein [Bradford M M: A rapid and sensitive method for the quantitation of microgram quantities of protein utilizing the principle of protein-dye binding; Anal. Biochem. 1976 72 248-254]. […]

Assay [3] relates to KY895. Briefly: Growth of E. coli KY895 on nucleoside analog plates, controls (cells only, empty vector pGEX-2T). In kind it is cell-based. The following applies: 24 hours at 37° C. The procedure:
(§4) Deoxyribonucleoside kinases are of interest as suicide-genes to be used in gene-mediated therapy of cancer or viral infections. In this example the potential of the mosquito kinase of the invention to convert different nucleoside analogs are compared to that of the human Herpes simplex virus 1 thymidine kinase (HSV1-TK) in a bacterial test system.
(§5) The experiment was carried out essentially as described by Knecht et al. [Knecht W. Munch-Petersen B and Piskur J: identification of residues involved in the specificity and regulation of the highly efficient multisubstrate deoxyribonucleoside kinase from Drosophila melanogaster; J. Mol. Biol. […] 301 827-837]. Briefly, overnight cultures of transformed KY895 were diluted 200-fold in 10% glyercol and 2 μl drops of the dilutions were spotted on M9 minimal medium plates [Ausubel F, Brent R, Kingston R E, Moore D D, Seldman J G, Smitf J A & Struhl K (Eds.): Short protocols in molecular biology; 3rd edition (1995) pp. 1-2, Wiley, USA] supplemented with 0.2% glucose, 0.1% casamino acids, 100 μg/ml ampicillin and with or without nucleoside analogs. Growth was inspected visually after 24 hours of incubation at 37° C.
pGEX-2T is the empty vector and is available from Amersham-Pharmacia;

Assay [4] concerns KY895 transformed with pGEX-2T-HSV1-TK. Nature of the assay: Growth of transformed E. coli KY895 on nucleoside analog plates, transformed with pGEX-2T-HSV1-TK. In kind it is cell-based. The following applies: 24 hours at 37° C. The procedure: as §4, §5
Assay [5] deals with KY895 transformed with PZG318. Briefly: Growth of transformed E. coli KY895 on nucleoside analog plates, transformed with PZG318 (mosquito dNK kinase). It is filed as cell-based. The procedure: as §4, §5

In the case of `Nc1nc2c(ncn2COCCO)c(=O)[nH]1` [ACV, acyclovir], in assay [1], the “Phosphorylation / activation by the mosquito deoxyribonucleoside kinase (in words)” value (shortened to “Phosphorylation / activation”) is “also activated” and the “Deoxyribonucleoside kinase specific activity in extract” value was 0.3 mU/ml.
On to `Nc1nc(O)c2ncn(COC(CO)CO)c2n1` [GCV, gancyclovir], for which, in assay [1], the “Phosphorylation / activation” value was “also activated” and the “Deoxyribonucleoside kinase specific activity in extract” value was found to be 0.7 mU/ml.
The matching figures for `Cc1cn([C@H]2C[C@H](O)[C@@H](CO)O2)c(=O)[nH]c1=O` [Thd, thymidine]: “able to phosphorylate” and 125 mU/ml.
The matching figures for `Nc1ncnc2c1ncn2[C@H]1C[C@H](O)[C@@H](CO)O1` [dAdo, deoxyadenosine]: “able to phosphorylate” and 364 mU/ml.
Turning to `Nc1ccn([C@H]2C[C@H](O)[C@@H](CO)O2)c(=O)n1` [dCyt, deoxycytidine], the “Deoxyribonucleoside kinase specific activity in extract” value in assay [2] stood at 0.1 mU/ml. Moreover, in assay [1], the “Phosphorylation / activation” value is “able to phosphorylate” and the “Deoxyribonucleoside kinase specific activity in extract” value is listed as 124.5 mU/ml.
With `Nc1ccn([C@@H]2O[C@H](CO)[C@@H](O)C2(F)F)c(=O)n1` [dFdC, 2′,2′-difluorodeoxycytidine], the “dFdC LD100” value is on record as above 100 nM in assay [3] (KY895 cells only); above 100 nM in assay [3] (KY895 transformed with pGEX-2T (empty vector)); above 100 nM in assay [4]; 3.16 nM in assay [5] (KY895 transformed with PZG318, M9 plates, growth inspected after 24 hours at 37° C.). Moreover, the “Phosphorylation / activation” value in assay [1] was “much stronger than dCyt”. The “Deoxyribonucleoside kinase specific activity in extract” value in assay [1] was 228 mU/ml. The “LD100 with mosquito dNK kinase (PZG318) lower than that of HSV1-TK” value in assay [5] (KY895 on nucleoside analog plates, PZG318 versus HSV1-TK) is “at least 30 fold”.
With `Nc1nc2c(ncn2[C@H]2C[C@H](O)[C@@H](CO)O2)c(=O)[nH]1` [dGuo, deoxyguanosine], in assay [1], the “Phosphorylation / activation” value is listed as “able to phosphorylate” and the “Deoxyribonucleoside kinase specific activity in extract” value amounted to 214.7 mU/ml.
